Laboratory results published in EP3878446A1, “HSD11B1 INHIBITORS FOR USE IN IMMUNOTHERAPY AND USES THEREOF” (UNIVERSITE DE GENEVE, priority 2020, dated 2021).

What was measured:
[1] = test system: human peripheral blood mononuclear cell (PBMC); assay: antigen recall assay (IFNγ secretion by CMV-stimulated PBMC, ELISA); format: cell-based; details: co-treatment: 1 µM HSD11B1 inhibitor + 1 µg/ml anti PD-1 (G4K), compared to anti-PD-1 or HSD11B1 inhibitor alone, 1 µg/ml CMV antigen, 50 ng/ml cortisone, 6 days, Fig. 1
Text: Response to immunotherapy rely on critical biological steps including antigen presentation and T cell activation. Therefore, the therapeutic potential of combining immunotherapy with HSD11B1 inhibition was investigated in an antigen recall assay as described below. Antigen recall assay is the gold standard in vitro method to assess the bioactivity of immune checkpoint inhibitors because it measures at the same time the potential of antigen presenting cells to activate T cell and the actual T cell activation, taking into account thereby the two critical mechanisms required for an optimal response to immunotherapy. The level of IFNγ secreted in this human immune cell-based assay is considered as a good indicator of the T cells activation to immunomodulatory molecules. Cryopreserved human peripheral blood mononuclear cell (PBMC) isolated from cytomegalovirus (CMV) positive heathy donors were thawed in a 37°C water bath and seeded in round bottom 96 well plates at 2 X 10^5 cells/well in 150 µL final volume of RPMI media supplemented with 10% fetal bovin serum, 1% non-essential amino acids, 0.01M Hepes, 1% Penicilin/Streptomycin, 1% L-glutamine and 50 ng/ml cortisone). […] Plates were incubated at 37°C, 6% CO2. After 6 days, supernatants were assayed for IFNγ by ELISA (Biolegend).

[2] = test system: GFP-expressing Renca cells; assay: murine T cell-mediated tumor cell-killing assay (growth of GFP Renca cells, Incucyte imaging); format: cell-based; details: combination: 10 µM HSD11B1 inhibitor + anti-PD-1 (mouse), compared to single treatments; 200 ng/ml 11-DHC; BMDCs, OT-I CD8 T cells, SIINFEKL loaded GFP Renca cells; Fig. 2
Description: Another critical biological mechanism required for an optimal response to immunotherapy of cancer is the capacity of T cells to kill the tumor target cells. The therapeutic potential of combining immunotherapy with HSD11B1 inhibition for the treatment of cancer was therefore assessed in a murine T cell-mediated tumor cell-killing assay. Wild type C57BL/6J murine bone marrow progenitors cells were maintained with 20 ng/ml GMCSF (Peprotech) to induce differentiation into bone marrow derived dendritic cells (BMDCs) for 6 days. At day 6, 2 X 10^4 BMDCs/well together with 2 X 10^3 Renca tumor cells/well were seeded in flat bottom 96 well plate in RPMI 1640 supplemented with 10% FBS, 1% Penicillin/streptomycin, 1% L-glutamine, […] betamercaptoethanol and 0.5% of sodium pyruvate, 32 ng/ml R848 (Invivogen) and 25 µg/ml ovalbumin (Invivogen). After 24 hours, cell supernatant was removed and 1x10^5 OT-I CD8 T cells/well were added in very low endotoxin RPMI 1640 medium supplemented with 10% fetal bovine serum, 1% L-glutamine, 1% penicillin-streptomycin, 1% sodium-pyruvate, 1% glutamine, 1%, non-essential amino acids and […] beta-mercaptoethanol. After 24 hours, 5x10^3 H2kb-recombined; SEQ ID NO: 1 […] (Invivogen) loaded-GFP-expressing Renca cells/well were added. The growth of GFP Renca cells was measured and quantified in real time by cell imaging using the Incucyte technology. […]

SMILES	level on IFNγ [1]	growth of tumor cells [2]
CC1(C)[C@@H](OC(=O)CCC(=O)O)CC[C@]2(C)[C@H]3C(=O)C=C4[C@@H]5C[C@@](C)(C(=O)O)CC[C@]5(C)CC[C@@]4(C)[C@]3(C)CC[C@@H]12 [carbenoxolone, (2S,4aS,6aR,6aS,6bR,8aR,10S,12aS,14bR )-10-(3-carboxypropanoyloxy)-2,4a,6a,6b,9,9,12a-heptamethyl-13-oxo-3,4,5,6,6a,7,8,8a,10,11,12,14b-dodecahydro-1H-picene-2-carboxylic acid]	significantly increased	–
O=C(O)CC1CC2(CCN(C(=O)NC3C4CC5CC(C4)CC3C5)CC2)c2c(Br)cccc21 (racemic) [10J, (+/-)-2-(7-bromo-1'-((2-adamantyl)carbamoyl)-2,3-dihydrospiro [indene-1,4'-piperidine]-3-yl) acetic acid]	significantly increased	–
CC(C)(O)c1cccn2c(C3(c4ccc(Cl)cc4)CC3)nnc12 [BMS-823778, 2-[3-[1-(4-chlorophenyl)cyclopropyl]-[1,2,4]triazolo[4,3-a]pyridin-8-yl]propan-2-ol]	significantly increased	inhibited the growth of tumor cells more efficiently than the single treatments
